The source of these data is patent publication US20220347141A1, “METHODS OF TREATING PHOSPHATE CONCENTRATION DISORDERS WITH L-BAIBA” (YALE UNIVERSITY, priority 2019, published 2022).

For one assay, the system named is WT mice. Nature of the assay: L-BAIBA or D-BAIBA in the drinking water of WT mice: urine Pi excretion, plasma Pi, plasma intact FGF23. In kind it is in vivo, mouse. The protocol: FIG. 5A: 5 mo. old males treated with CO, L-BAIBA, or D-BAIBA in the drinking water for 5 days. FIGS. 5B-5D: same 5 mo. old males from FIG. 5A treated for 30 days, following sacrifice in addition to urine Pi/urine creatinine, plasma Pi and plasma intact FGF23 were determined. Data are mean±SEM, ****p<0.00002, ***p=0.0002, **p=0.002, *p=0.03 vs. CO.
Mouse lines are back-crossed to C57BL6 mice (Charles river laboratories strain ID 027) to reduce variation caused by genetic background and fed a standard chow containing 0.3% bio-available Pi (Teklad 2018S) or for selective experiments a high Pi (HPD diet, 1.2% bio-available Pi, Teklad TD85349). L-BAIBA can be supplied in the drinking water (see Chemical Reagents below). PCR-based genotyping can be done on each experimental animal using gDNA prepared by alkaline lysis from a tail- or ear-snip to verify presence of the Pit1 null, Pit2 null, HA-hPIT1^tg/+ and HSA-Cre^tg/+ alleles.
All blood and urine studies for calcium, creatinine, phosphorus, iPTH, and c/iFGF23 can be performed using commercially available Stanbio kits, Immutopics and R&D ELISAs, or LC-MS/MS-based methods. […] Results can be analyzed using a Perkin Elmer 1420 Multilabel Counter Victor 3 currently located at the Anlyan Center, S-120 or using an Applied Biosystems API6500 QTrap interfaced to a Shimadzu HPLC (LC-20AD, SIL-20AC, CTO-20A) currently located in Anlyan Center, S-260. […]

The subject of a further assay is FGF23 synthesis in bone. Nature of the assay: Stimulation of FGF23 synthesis in bone. As to conditions: resulting in unsuppressed FGF23 levels. The assay is classed as in vivo.
Another assay has as its target T1, MRGPRD (Mus musculus, UniProt Q91ZB8).
T1 construct: young osteocytes which express high levels of MRGPRD; endogenous in cells; host or cells: osteocytes of young mice (in vivo, hind-limb suspension)
T1 sequence (Q91ZB8 1-321): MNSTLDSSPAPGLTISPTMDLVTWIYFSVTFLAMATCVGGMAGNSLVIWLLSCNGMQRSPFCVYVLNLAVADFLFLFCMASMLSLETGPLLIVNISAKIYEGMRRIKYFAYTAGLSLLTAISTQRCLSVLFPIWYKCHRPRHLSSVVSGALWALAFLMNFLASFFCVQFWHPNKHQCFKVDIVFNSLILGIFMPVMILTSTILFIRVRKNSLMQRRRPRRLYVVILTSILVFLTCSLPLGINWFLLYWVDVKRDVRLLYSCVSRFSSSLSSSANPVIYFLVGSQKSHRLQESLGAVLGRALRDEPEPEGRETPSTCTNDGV
As to conditions: young mice, cited from earlier work.

The target in another assay is T2, FGF23 (Homo sapiens, UniProt Q9GZV9).
T2 construct: individuals treated with burosumab (Crysvita), an FGF23-neutralizing antibody therapy for XLH; endogenous in cells; host or cells: patients with XLH (in vivo, circulating hormone)
T2 sequence (Q9GZV9 25-251): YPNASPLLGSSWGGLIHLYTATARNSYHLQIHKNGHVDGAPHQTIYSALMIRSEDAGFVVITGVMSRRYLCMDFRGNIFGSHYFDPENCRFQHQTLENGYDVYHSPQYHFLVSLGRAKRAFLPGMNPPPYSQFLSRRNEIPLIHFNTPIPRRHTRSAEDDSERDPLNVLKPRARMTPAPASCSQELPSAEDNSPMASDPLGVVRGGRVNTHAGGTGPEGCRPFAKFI
The note with it: individuals with XLH treated with burosumab; cited from earlier work.

Entries after “also recorded” stand apart in the source; their conditions may differ.

In the case of `C[C@@H](CN)C(=O)O` [L-BAIBA, (S)-3-amino-2-methylpropanoic acid], the “urine Pi excretion (urine Pi/urine creatinine)” value with WT mice (5 mo. old male WT mice, in the drinking water for 5 or 30 days, vs. CO) is recorded as “increased renal Pi-excretion; also recorded: increases urine Pi excretion; also recorded: caused a renal Pi leak”. In addition, the “FGF23 levels (plasma intact FGF23)” value with WT mice (5 month old WT mice treated with L-BAIBA) was “inappropriately normal”. Besides, the “FGF23 synthesis in bone” value in the assay on FGF23 synthesis in bone was “able to stimulate FGF23 synthesis in bone”. Further, the osteocyte survival entry at MRGPRD (activation of MRGPRD, maintaining mitochondrial integrity) is listed as “promotes osteocyte survival”. For the same molecule, the “bone loss caused by hind-limb suspension” value at MRGPRD is listed as “prevents bone loss”.

With “burosumab: an FGF23-neutralizing antibody therapy for XLH”, the “fatigue and endurance reported by treated individuals” value with FGF23 is “improved fatigue and endurance”.
